Data taken from patent US20230257367A1, “NOVEL THYROID HORMONE BETA RECEPTOR AGONIST” (Chengdu Kanghong Pharmaceutical Co., Ltd., priority 2020, published 2023).

Tests used:
TRα-LBD/RXRα = molecular target: T1, TRα-LBD/RXRα (Homo sapiens, UniProt P10827); assay: In vitro binding experiment (TR-FRET SRC2-2 co-activator peptide recruitment), TRα; type: biochemical; details: 4 h incubation at room temperature
T1 construct: TRα-LBD (Invitrogen, PV4762), or TRβ-LBD (Invitrogen, PV4764) with a GST tag were used; purchased Invitrogen (TRα-LBD); Pharmaron (RXRα) PV4762

NASH model = assay: In vivo pharmacological experiment: DIO + CCl4 induced NASH model; design: species or system C57BL/6J male mice; details: oral, once per day
Procedure: In the early stages of this experiment, mice induced by DIO (diet-induced obesity) were fed with a high-fat diet, followed by intraperitoneal injection of CCl4 during high-fat diet feeding to induce the NASH model. In this model, the anti-NASH efficacy of the compound to be tested was evaluated Animal information: C57BL/6J male mice (18 weeks old) were used, comprising 32 DIO mice+8 normal mice, wherein the weight of DIO mice >38 g. [table] [table] Induction with CCl4: A 25% (volume ratio) of CCl4 solution was prepared by placing 1 part CCl4 and 3 parts olive oil in a glass bottle. The solution was mixed well and used right after it was ready Eight mice in the first group were intraperitoneally injected with normal saline solution as normal controls The mice in the 2rd to 5th groups were intraperitoneally injected with 25% CCl4 solution twice a week. 25% (volume ratio) CCl4 was administered by body weight, 0.5 ml/kg. The interval between the injection time of CCl4 and the time of administration on the day should be more than 4 hours Histopathological Analysis All liver samples were dehydrated by a dehydrating instrument (Leica HistoCore Pearl-0348) and then embedded by a paraffin embedding machine (HistoCoreArcadia). The embedded liver sample was then sliced using a Lecia RM2235 machine. NAS Score NAS scores were performed on HE (hematoxylin-eosin) stained slices as the sum of steatosis, balloon degeneration, and lobular inflammation. [table] […] Percentage of Fibrosis All slices stained with Sirius red were scanned by a Leica Aperio AT2 Brightfield scanner, and then a percentage of Sirius red positive staining area was calculated by the HALO AI system to evaluate the percentage area of the Sirius red in the total liver area scanned.

primary hepatocyte = assay: Hepatotoxicity detection in vitro (CellTiter-Glo); type: cell-based, human; details: primary hepatocytes
Procedure: Information of Primary Hepatocyte
Step 1: a test substance was prepared into a 200 mM DMSO stock solution, and then subjected to 3-times gradient continuous dilution by 7 concentrations, then 1.5 μL of each of the solutions of the 8 concentrations was added into 498.5 μL of incubation culture medium (with a composition referring to Table 5, directly mixed evenly) to prepare a working solution, and the incubation culture medium was preheated at 37° C. before preparation. DMSO was used as a solvent control. DMSO contents in the working solution and the solvent control were both 0.3 vol %. Concentrations of compounds were as follows:
Step 2: Plate Inoculation and Cell Culture
Second Step: Plate Inoculation and Culture of Cells
1) A tube of hepatocytes of the donor used in the experiment preserved at ultra-low temperature was taken, and the hepatocytes were ensured to be still frozen at low temperature before resuscitation. The hepatocytes were quickly placed in a water bath at 37° C. and gently shaken until all ice crystals were dispersed, and were transferred to a biosafety cabinet after spraying 70 vol % ethanol.
2) Contents of hepatocyte tubules were poured into a 50 mL centrifuge tube containing 50 mL of resuscitation culture medium (with a composition referring to Table 3, directly mixed evenly), and centrifuged at 80 g for 8 minutes. After centrifugation, the resuscitation culture medium was sucked out and an inoculation culture medium was added (with a composition referring to Table 4, directly mixed evenly). The cells were counted by AO/PI staining to obtain a cell suspension with a cell density of 0.2×10^6 cells per milliliter.
3) The cell suspension above was inoculated into a 96-well plate coated with collagen I, with 100 μL per well. The culture plate was placed in a 5% CO2 incubator with 95% relative humidity to culture for 4 hours to 6 hours.
4) After incubation for 4 hours to 6 hours, the state of the cells was observed under microscope. The culture plate was shaken gently, the inoculation culture medium was sucked out, and 100 μL of incubation culture medium was added into each well (with a composition referring to Table 5). A toxicity test could be carried out after culturing in the incubator for 18 hours to 20 hours.
5) Before administration, the morphology of the cells was observed under microscope. The culture medium in the culture plate was sucked out, and 100 μL of solvent control (DMSO), or test substance working solution was added into each well. Three parallel samples were tested under each condition.
6) The newly prepared working solution or solvent control was used for solution exchange every 24 hours after dosing.
After the working solution acted for 48 hours, the morphology of the cells was observed under microscope for later use.
Step 3: Cytotoxicity Detection
1) A CellTiter-Glo (Promega, article number G9243) reagent stored at −20° C. was melted in a water bath at 37° C.
2) After the cell culture plate obtained above was incubated for 48 hours, 50 μL of CellTiter-Glo solution was directly added into each experimental well.
3) The cell culture plate was vortexed at 400 rpm for 10 minutes, and incubated at room temperature to stabilize a luminescence signal.
After 10 minutes 100 μL of reaction solution was sucked from each well and transferred to a new white nontransparent-bottom flat plate (Corning 96-well plate Cat No. 3917). The
chemiluminescence value of each well was read by a microplate reader (a luminescence value of the white nontransparent-bottom flat plate was recorded as “a luminescence valueblank”; and a luminescence value of the solvent control was recorded as “a luminescence valuesolvent”).
Cell viability(%)=[(luminescence valueto-be-tested compound−luminescence valueblank)/(luminescence valuesolvent−luminescence valueblank)]×100% […]

TRα = molecular target: T2, TRα (Homo sapiens, UniProt P10827); assay: In vitro TRα cell transfection experiment (GAL4 luciferase reporter, HEK293T); type: cell-based
T2 construct: host or cells: HEK293T
T2 sequence (P10827 1-410 isoform P10827-2): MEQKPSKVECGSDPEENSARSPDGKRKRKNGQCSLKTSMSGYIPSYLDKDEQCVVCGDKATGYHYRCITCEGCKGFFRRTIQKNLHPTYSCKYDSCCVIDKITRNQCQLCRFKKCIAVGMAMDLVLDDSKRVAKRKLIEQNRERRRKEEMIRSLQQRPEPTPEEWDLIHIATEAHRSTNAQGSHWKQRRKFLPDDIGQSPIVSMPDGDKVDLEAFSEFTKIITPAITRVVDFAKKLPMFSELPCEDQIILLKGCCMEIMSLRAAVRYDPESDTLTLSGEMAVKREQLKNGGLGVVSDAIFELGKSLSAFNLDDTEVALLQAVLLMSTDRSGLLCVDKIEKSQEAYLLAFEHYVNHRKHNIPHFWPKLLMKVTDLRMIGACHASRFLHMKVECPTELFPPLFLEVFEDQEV
T2 sequence (P19793 227-458 partner limits assumed): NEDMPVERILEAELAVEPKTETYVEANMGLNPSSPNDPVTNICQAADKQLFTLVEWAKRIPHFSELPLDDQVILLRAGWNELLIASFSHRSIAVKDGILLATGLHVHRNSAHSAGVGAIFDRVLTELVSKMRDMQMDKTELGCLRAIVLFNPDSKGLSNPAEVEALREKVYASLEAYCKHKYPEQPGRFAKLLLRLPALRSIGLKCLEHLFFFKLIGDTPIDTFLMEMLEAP

T1 sequence (P19793 whole entry partner, other chains not shown, the tested form may be a part): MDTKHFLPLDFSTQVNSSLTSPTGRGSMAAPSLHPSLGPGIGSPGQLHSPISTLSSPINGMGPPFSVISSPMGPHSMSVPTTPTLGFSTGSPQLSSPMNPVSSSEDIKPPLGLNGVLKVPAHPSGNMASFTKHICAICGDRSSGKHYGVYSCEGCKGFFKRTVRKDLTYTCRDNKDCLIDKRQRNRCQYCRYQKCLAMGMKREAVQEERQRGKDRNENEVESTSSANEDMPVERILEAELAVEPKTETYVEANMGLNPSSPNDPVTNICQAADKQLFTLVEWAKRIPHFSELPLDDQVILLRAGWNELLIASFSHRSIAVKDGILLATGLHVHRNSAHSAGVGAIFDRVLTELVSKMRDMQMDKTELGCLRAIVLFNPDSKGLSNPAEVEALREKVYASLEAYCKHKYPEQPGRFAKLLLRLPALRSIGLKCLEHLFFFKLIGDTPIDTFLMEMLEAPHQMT

- EC50 (TRα-LBD/RXRα): 0.094 µM
- EC50 (TRα): 0.037 µM
Compound: CC(C)c1nc(Oc2c(Cl)cc(-n3ncc(=O)[nH]c3=O)cc2Cl)ncc1O [KH06]
- NAS score (sum of steatosis, ballooning degeneration and lobular inflammation) (NASH model; 1 and 3 mg/kg, compared with the model group, FIG. 2): significant reduction in score
- fibrosis evaluation (percentage of Sirius red positive area) (NASH model; 1 and 3 mg/kg, day 0 to day 27, FIG. 1): reducing the proportion of fibrosis
- fibrosis efficacy compared with MGL3196 at 3 mg/kg (NASH model; KH06 1 mg/kg, FIG. 1): better than that of MGL3196 at a dosage of 3 mg/kg
- NAS score efficacy compared with MGL3196 at 3 mg/kg (NASH model; KH06 1 mg/kg, FIG. 2): same efficacy as MGL3196 at 3 mg/kg
- IC50 (primary hepatocyte; Homo sapiens, Hepatocyte, cell viability after 48 hours): 207000 nM
- Cell activity at the highest concentration (%) (primary hepatocyte; 48 hours, highest working solution concentration 600 μM): 4.50%
